For test [1], the system named is Escherichia coli. Nature of the test: Inhibition of NDM1 in Escherichia coli 91N clinical isolate assessed as potentiation of meropenem-induced antibacterial activity by measuring meropenem MIC at 8 ug/ml by broth microdilution method (Rvb > 64 ug/ml).
Test [2] in a line: Inhibition of recombinant bacterial OXA-10 expressed in Escherichia coli assessed as reduction in breakdown of cephalosporin FC-5 by fluorescence method. Details: species or system Bacteria; call rule not given here.
The test system of test [3] is Escherichia coli. The test is described as follows: Inhibition of NDM1 in Escherichia coli IR57 clinical isolate assessed as potentiation of meropenem-induced antibacterial activity by measuring meropenem MIC at 8 ug/ml by broth microdilution method (Rvb > 64 ug/ml). On the technique in general: Dilution methods test growth across graded concentrations, often in twofold steps.

For another test, the system named is Bacteria. The test is described as follows: Inhibition of bacterial expressed in Escherichia coli OXA-10 assessed as reduction in breakdown of cephalosporin FC-5 at 400 uM by fluorescence method.
The subject of test [4] is Escherichia coli. Nature of the test: Inhibition of NDM1 in Escherichia coli S117 clinical isolate assessed as potentiation of meropenem-induced antibacterial activity by measuring meropenem MIC at 8 ug/ml by broth microdilution method (Rvb > 64 ug/ml).
Test [5] concerns the target Metallo-beta-lactamase type 2 (Klebsiella pneumoniae) (UniProt C7C422). The test is described as follows: Inhibition of NDM1 in Klebsiella pneumoniae B64 clinical isolate assessed as potentiation of meropenem-induced antibacterial activity by measuring meropenem MIC at 8 ug/ml by broth microdilution method (Rvb > 64 ug/ml).
For test [6] the target is unchanged. The test is described as follows: Inhibition of NDM1 in Klebsiella pneumoniae IR43 clinical isolate assessed as potentiation of meropenem-induced antibacterial activity by measuring meropenem MIC at 8 ug/ml by broth microdilution method (Rvb > 64 ug/ml).
Test [7] in a line: Inhibition of recombinant Escherichia coli OXA-10 assessed as reduction in breakdown of cephalosporin FC-5 in presence of 100 mM NaHCO3 by fluorescence method.
Test [8] deals with Metallo-beta-lactamase type 2 (Klebsiella pneumoniae) (UniProt C7C422). The test is described as follows: Inhibition of NDM1 in Klebsiella pneumoniae B68-1 clinical isolate assessed as potentiation of meropenem-induced antibacterial activity by measuring meropenem MIC at 8 ug/ml by broth microdilution method (Rvb > 64 ug/ml).
Chain of Metallo-beta-lactamase type 2 (Klebsiella pneumoniae) (C7C422 whole entry): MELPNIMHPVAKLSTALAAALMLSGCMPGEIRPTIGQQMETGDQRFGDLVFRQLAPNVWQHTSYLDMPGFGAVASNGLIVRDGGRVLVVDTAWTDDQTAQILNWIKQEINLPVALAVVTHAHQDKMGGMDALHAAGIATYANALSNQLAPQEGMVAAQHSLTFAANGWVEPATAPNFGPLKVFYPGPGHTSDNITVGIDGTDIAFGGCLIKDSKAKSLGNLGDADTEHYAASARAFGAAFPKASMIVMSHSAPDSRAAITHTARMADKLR
Test [9] can be described thus: Inhibition of recombinant bacterial VIM-1 expressed in Escherichia coli assessed as reduction in breakdown of cephalosporin FC-5 by fluorescence method. Details: species or system Bacteria.
Test [10] can be described thus: Inhibition of recombinant bacterial NDM-1 expressed in Escherichia coli assessed as reduction in breakdown of cephalosporin FC-5 by fluorescence method. Details: species or system Bacteria.
Test [11] in a line: Inhibition of recombinant Escherichia coli OXA-48 assessed as reduction in breakdown of cephalosporin FC-5 in presence of 100 mM NaHCO3 by fluorescence method.
A short description of test [12]: Inhibition of recombinant bacterial IMP-1 expressed in Escherichia coli assessed as reduction in breakdown of cephalosporin FC-5 by fluorescence method. Details: species or system Bacteria.
The nature of test [13]: Inhibition of recombinant bacterial KPC-2 expressed in Escherichia coli assessed as reduction in breakdown of cephalosporin FC-5 by fluorescence method. Details: species or system Bacteria.
Test [14] is described as follows: Inhibition of recombinant Stenotrophomonas maltophilia K279a L1 expressed in Escherichia coli using FC-5 as substrate by fluorescence method.
Test [15] in a line: Inhibition of recombinant bacterial CphA expressed in Escherichia coli assessed as reduction in hydrolysis of meropenem by UV spectrophotometeric analysis. Details: species or system Bacteria.

Structures are written as SMILES. pIC50: −log10 of the molar value. Where only a bound is given, the exact number is not on record here.

`O=C(O)C[C@@H]1CC[C@H](NC(=O)Cc2cccs2)B(O)O1` [VABORBACTAM]: the MIC (with Escherichia coli [1]; with Escherichia coli [3]; with Escherichia coli [4]; in test [5]; in [6]; in test [8]) was more than 64 µg/mL throughout. Besides, the negative logarithm of the IC50 (pIC50) in [2] and in [7] was less than 3.40 in each case. Also, the inhibition in the test with Bacteria was less than 50%.
Turning to `NCc1ccc(C(=O)N[C@H]2Cc3cccc(C(=O)O)c3OB2O)cc1`, the negative logarithm of the IC50 (pIC50) in [9] is 7.07; in test [10], 7.54; in test [11] it was 5.59; in test [12] it was 6.00; in test [13], 7.52; in [15] it was less than 4.00. Further, the IC50 entry in test [14] is reported as “Not Active”.

As a reminder, the pIC50 is the IC50 on a negative log10 scale, so that one unit is a factor of ten. The inhibition is the drop in the measured response relative to a control, in per cent.
